The record followed here is PubChem BioAssay (NCI).

Among the test systems are OVCAR-8 ovarian; LOX IMVI melanoma; COLO 205 colon; UO-31 renal; HCC-2998 colon; M14 melanoma; UACC-257 melanoma; A498 renal; NCI-H23 lung; SK-OV-3 ovarian.
Common to all, as to test: DTP human tumour cell line panel, 48 h

Structures are written as SMILES. Where “and” joins values, the source holds several entries; their conditions need not be identical. Equal values may be shown once.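 Where inhibition never reached the appropriate level, the endpoint shown equals the highest concentration tested. Otherwise, values were interpolated linearly from a five-concentration, 48-hour dose response in 96-well plates. The concentration for 50% growth inhibition is given as GI50. At the TGI there is no net growth.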

As a reminder, the GI50 is the concentration that inhibits growth by half. A word on the TGI: it is the concentration giving total growth inhibition. Turning to `COc1cc(NC(C)CCCNC2CN3CCC2CC3)c2ncccc2c1` (centres undefined), the GI50 is 13.7 µM in the experiment with OVCAR-8 ovarian; 9.6 µM in the experiment with LOX IMVI melanoma; 2.58 µM in the experiment with COLO 205 colon; 13.7 µM with UO-31 renal; 11.1 µM in the experiment with HCC-2998 colon; 3.92 µM in the experiment with M14 melanoma. Besides, the GI50 is 2.39 µM in the experiment on UACC-257 melanoma, 2.05 µM in the experiment with A498 renal, 13.8 µM in the experiment on NCI-H23 lung and 15.2 µM in the experiment on SK-OV-3 ovarian. In addition, the TGI in the experiment on OVCAR-8 ovarian was 30.1 µM; in the experiment on LOX IMVI melanoma, 25 µM; in the experiment with COLO 205 colon, 7.16 µM; with UO-31 renal it was 32.6 µM; with HCC-2998 colon, 24.8 µM; with M14 melanoma, 13.5 µM. For the same molecule, the TGI in the experiment on UACC-257 melanoma worked out at 5.74 µM; with A498 renal, 16.8 µM; in the experiment on NCI-H23 lung, 29.6 µM; with SK-OV-3 ovarian, 28.5 µM.
On to `Cc1cc2c(cc1C)N(C(=O)CCl)CC(=O)N2`, for which the GI50 in the experiment on OVCAR-8 ovarian was 3.01 µM; in the experiment on LOX IMVI melanoma, 0.858 µM; in the experiment with COLO 205 colon, 2.09 µM; with UO-31 renal, 1.74 µM; with HCC-2998 colon it was 2.88 µM; in the experiment on M14 melanoma it was 2.2 µM. Also, the GI50 in the experiment on UACC-257 melanoma was 4.83 µM; with A498 renal it was 3.5 µM; with NCI-H23 lung it was 3.41 µM; with SK-OV-3 ovarian, 12.2 µM. In addition, the TGI stood at 10.8 µM with OVCAR-8 ovarian; 4.85 µM in the experiment with LOX IMVI melanoma; 3.68 µM in the experiment on COLO 205 colon; 3.24 µM in the experiment on UO-31 renal; 8.91 µM in the experiment on HCC-2998 colon; 8.35 µM with M14 melanoma. The TGI in the experiment with UACC-257 melanoma was 18.5 µM; in the experiment with A498 renal, 18.2 µM; with NCI-H23 lung, 16.4 µM; with SK-OV-3 ovarian, 24.6 µM.
With `COc1c(C)c2c(c(O)c1C/C=C(\C)CCC(=O)O)C(=O)OC2`, the GI50 with OVCAR-8 ovarian is 0.443 µM; with LOX IMVI melanoma it was 0.132 µM; in the experiment on COLO 205 colon it was 0.416 µM; in the experiment with UO-31 renal, 0.472 µM; with HCC-2998 colon, 0.404 µM; with M14 melanoma, 0.343 µM. The GI50 in the experiment on UACC-257 melanoma was 0.434 µM; in the experiment on A498 renal, 0.42 µM; in the experiment with NCI-H23 lung it was 0.282 µM; in the experiment with SK-OV-3 ovarian, 0.571 µM. The total growth inhibition concentration (TGI) in the experiment with OVCAR-8 ovarian, in the experiment with LOX IMVI melanoma, in the experiment with COLO 205 colon, in the experiment with UO-31 renal, in the experiment with HCC-2998 colon and with M14 melanoma was greater than 100 µM throughout. Besides, the TGI with UACC-257 melanoma, in the experiment on A498 renal, in the experiment with NCI-H23 lung and in the experiment with SK-OV-3 ovarian was greater than 100 µM in each case.
Regarding `C=C1CCC2C3(C)COC(c4ccc(N(C)C)cc4)OC3CCC2(C)C1C/C=C1/C(=O)OCC1O` (centres undefined), the GI50 in the experiment on OVCAR-8 ovarian is 3.78 µM; with LOX IMVI melanoma, 1.59 µM; in the experiment with COLO 205 colon, 3.54 µM; with UO-31 renal, 5.63 µM; in the experiment on HCC-2998 colon, 7.69 µM; with M14 melanoma, 4.1 µM. The GI50 is 13.1 µM in the experiment with UACC-257 melanoma, 6.25 µM with A498 renal, 4.37 µM in the experiment with NCI-H23 lung and 17 µM with SK-OV-3 ovarian. Also, the total growth inhibition concentration (TGI) in the experiment on OVCAR-8 ovarian stood at 18.9 µM; in the experiment on LOX IMVI melanoma, 3.5 µM; in the experiment with COLO 205 colon, 12.7 µM; in the experiment on UO-31 renal, 18.9 µM; in the experiment with HCC-2998 colon it was 19.8 µM; in the experiment on M14 melanoma, 16.7 µM. Also, the total growth inhibition concentration (TGI) amounted to 26.8 µM with UACC-257 melanoma, 17.1 µM in the experiment with A498 renal, 15.7 µM in the experiment with NCI-H23 lung and 50.4 µM with SK-OV-3 ovarian.
For `COc1ccc2c(c1)c(=O)oc1cc(OC/C(C)=N\O)ccc12`, the GI50 in the experiment on OVCAR-8 ovarian was greater than 100 µM; with LOX IMVI melanoma it was greater than 100 µM; in the experiment on COLO 205 colon it was greater than 100 µM; in the experiment on UO-31 renal it was 33.3 µM; in the experiment on HCC-2998 colon it was greater than 100 µM; with M14 melanoma it was greater than 100 µM. For the same molecule, the GI50 was greater than 100 µM in the experiment with UACC-257 melanoma, greater than 100 µM in the experiment on A498 renal, greater than 100 µM with NCI-H23 lung and 99.7 µM with SK-OV-3 ovarian. In addition, the total growth inhibition concentration (TGI) in the experiment on OVCAR-8 ovarian, in the experiment with LOX IMVI melanoma, in the experiment on COLO 205 colon, in the experiment on UO-31 renal, with HCC-2998 colon and in the experiment with M14 melanoma was greater than 100 µM each time. The TGI in the experiment with UACC-257 melanoma, in the experiment on A498 renal, in the experiment with NCI-H23 lung and with SK-OV-3 ovarian was greater than 100 µM throughout.
As for `FC(F)(F)c1ccc(Nc2nc(-c3c(C(F)(F)F)nc4ccccn34)cs2)cc1`, the 50% growth inhibitory concentration (GI50) was 0.18 µM with OVCAR-8 ovarian; 0.0533 µM in the experiment on LOX IMVI melanoma; 0.0323 µM in the experiment on COLO 205 colon; 0.289 µM in the experiment on UO-31 renal; 0.18 µM in the experiment on HCC-2998 colon; 0.043 µM with M14 melanoma. Besides, the GI50 with UACC-257 melanoma was 2.06 µM; with A498 renal it was 0.0268 µM; in the experiment with NCI-H23 lung, 0.0579 µM; in the experiment on SK-OV-3 ovarian, 0.0491 µM. Further, the TGI was 7.74 µM in the experiment with OVCAR-8 ovarian; 7.95 µM in the experiment with LOX IMVI melanoma; 0.167 µM with COLO 205 colon; 6.89 µM with UO-31 renal; 9.74 µM with HCC-2998 colon; 1.22 µM in the experiment with M14 melanoma. For the same molecule, the concentration for total growth inhibition (TGI) with UACC-257 melanoma was determined as 8.64 µM; in the experiment on A498 renal, 0.193 µM; with NCI-H23 lung it was 5.51 µM; in the experiment on SK-OV-3 ovarian it was 5.03 µM.
With `CCN(CC)CCCC(C)Nc1ccnc2cc(Oc3ccccc3)ccc12` (centres undefined), the GI50 with OVCAR-8 ovarian was 3.62 µM and 9.15 µM; in the experiment with LOX IMVI melanoma it was 2.05 µM and 2.13 µM; in the experiment with COLO 205 colon it was 1.88 µM and 1.65 µM; in the experiment on UO-31 renal it was 1.3 µM and 11.3 µM; with HCC-2998 colon, 2.34 µM and 6.92 µM; in the experiment on M14 melanoma, 1.77 µM and 1.79 µM. The GI50 with UACC-257 melanoma was 1.95 µM and 2.09 µM; in the experiment with NCI-H23 lung it was 10.4 µM and 22.8 µM; with SK-OV-3 ovarian it was 15.7 µM and 22.9 µM. Further, the total growth inhibition concentration (TGI) with OVCAR-8 ovarian was 14.6 µM and 38.5 µM; with LOX IMVI melanoma, 5.06 µM and 6.82 µM; with COLO 205 colon, 4.4 µM and 3.94 µM; in the experiment on UO-31 renal, 3.09 µM and 27.7 µM; in the experiment with HCC-2998 colon it was 7.94 µM and 36.9 µM; in the experiment on M14 melanoma, 3.5 µM and 3.35 µM. Further, the concentration for total growth inhibition (TGI) was 3.59 µM and 3.94 µM with UACC-257 melanoma; 7.85 µM and 28.5 µM with A498 renal; 28.7 µM and > 100 µM with NCI-H23 lung; 32.2 µM and 78.9 µM in the experiment on SK-OV-3 ovarian.
